Assay results from US9556231B2, “Beta-hairpin peptidomimetics as CXC4 antagonists” (POLYPHOR AG, priority 2011, dated 2017).
Bridge positions count the residues as written; N and C are the ends. Square brackets hold non-standard residues; d marks the D form. Peptide text beside a SMILES is read from it. Lys(iPr) = CC(C)NCCCC[C@H](N)C(=O)O; Orn(iPr) = CC(C)NCCC[C@H](N)C(=O)O; Dab = NCC[C@H](N)C(=O)O

Key:
[1] = Plasma stability, human plasma; type: in vitro ADME; conditions: 37° C., 1440 min, read-out: human pl. cpd left at 1440 min
Method: The stability of the peptides in human and mouse plasma was determined by applying the following method: 346.5 μL/deep well of freshly thawed human plasma (Basler Blutspende-dienst) and mouse plasma (Harlan Sera-Lab, UK), respectively, were spiked with 3.5 μL/well of compound dissolved in DMSO/H2O (90/10 [v/v], 1 mM, triplicate) and incubated at 37° C. At t=0, 15, 30, 60, 120, 240 and 1440 min aliquots of 50 μL were transferred to filtration plate wells containing 150 μL/well of 2% formic acid in acetonitrile. Following shaking for 2 min the occurred suspensions were filtrated by vacuum. 100 μL of each filtrate were transferred to a propylene microtiter plate and dried under N2. The residual solids were reconstituted by adding 100 μL/well of water/acetonitrile, 95/5 (v/v)+0.2% formic acid and analyzed by LC/MS as follows: Column: Waters, XBridge C18, mobile phases: (A) water+0.1% formic acid and (B) acetonitrile/water, 95/5 (v/v)+0.1% formic acid, gradient: 5%-100% (B) in 1.8 minutes, electrospray ionization, MRM detection (triple quadrupole). The peak areas were determined and triplicate values are averaged. The stability is expressed in percent of the initial value at t=0·(tx/t0×100). By using the TREND function of EXCEL (Microsoft Office 2003) T1/2 were determined.

[2] = Cytotoxicity, MTT reduction assay, COS-7 cells; type: cell-based; conditions: African green monkey
Method: (§1) Namalwa cells (CXCR4 natively expressing non-adherent cells, ATCC CRL-1432) were cultured in RPMI1640 plus 10% FBS, and pen/strept. HELA cells were maintained in RPMI1640 plus 10% FBS, pen/strept and 2 mM L-glutamine. Cos-7 cells were grown in DMEM medium with […] glucose supplemented with 10% FCS, pen/strept and 2 mM L-glutamine. All cell lines were grown at 37° C. at 5% CO2. Cell media, media supplements, PBS-buffer, HEPES, antibiotic/antimycotic, pen/strept, non essential amino acid, L-glutamine, β-mercaptoethanol and sera were purchased from Gibco (Pailsey, UK). All fine chemicals were supplied by Merck (Darmstadt, Germany).
(§2) The cytotoxicity of the peptides to HELA cells (Acc57) and COS-7 cells (CRL-1651) was determined using the MTT reduction assay (T. Mossman, J. Immunol. Meth. 1983, 65, 55-63; M. V. Berridge, A. S. Tan, Arch. Biochem. Biophys. 1993, 303, 474-482). Briefly, the method was as follows: 4000 HELA cells/well and 3400 COS-7 cells/well were seeded and grown in 96-well microtiter plates for 24 h at 37° C. at 5% CO2. Thereafter, time zero (Tz) was determined by MTT reduction (see below). The supernatant of the remaining wells was discarded, and fresh medium and compounds in serial dilutions (12.5, 25 and 50 μM, triplicates; 0 μM, blank) were pipetted into the wells. After incubation of the cells for 48 h at 37° C. at 5% CO2 the supernatant was discarded again and 100 μL MTT reagent (0.5 mg/mL in RPMI1640 and DMEM, respectively)/well was added. Following incubation at 37° C. for 2-4 h the media were aspirated and the cells were spiked (100 μL isopropanol/well). The absorbance of the solubilized formazan was measured at 595 nm (OD595peptide). For each concentration averages were calculated from triplicates. The percentage of growth was calculated as follows: (OD595peptide−OD595Tz)/(OD595blank−OD595Tz)×100%. The GI50 (Growth Inhibition) concentrations were calculated for each peptide by using a trend line function for the concentrations (50, 25, 12.5 and 0 μM), the corresponding percentages and the value 50, (=TREND (C50:C0,%50:%0,50).

[3] = Cytotoxicity, MTT reduction assay, HELA cells; type: cell-based; conditions: human
Method: as §1, §2

[4] = Pharmacokinetic study (PK), i.v., CD-1 mice; type: in vivo; conditions: male, CD-1, in vivo, iv, mouse, i.v. 1 mg/kg; for level at 0.083 h / level at 0.25 h / level at 0.5 h / level at 1 h / level at 2 h / level at 3 h / level at 4 h: read-out: Calc. Conc. (plasma); for AUC(0-inf) / Cmax / clearance / half-life / Vd: one-compartmental model; for Vd: read-out: Vdis
Method: For the compounds of Ex. 1, Ex. 2, Ex. 3, Ex. 4, Ex. 5 and Ex. 6 pharmacokinetic studies after intravenous (i.v.) administration were performed.
30 grams (±20%) male CD-1 mice obtained from Charles River Laboratories Deutschland GmbH were used. The vehicle, phosphate buffered saline, was added to give a final concentration of 0.5 mg/mL of the compound. The volume was 2 mL/kg and the compound was injected to give a final intravenous dose of 1 mg/kg. Approximately 300-400 μL of blood was removed under light isoflurane anesthesia by cardiac puncture at predetermined time intervals (5, 15, 30 min and 1, 2, 3, 4, hours) and added to heparinized tubes. Plasma was removed from pelleted cells upon centrifugation and frozen at −80° C. prior to HPLC-MS analysis.
Aliquots of 50 μL each of mouse plasma of untreated aminals (“blank” mouse plasma) were spiked with known amounts of the compounds Ex. 1, Ex. 2, Ex. 3, Ex. 4, Ex. 5 and Ex. 6 in order to obtain 10 plasma calibration samples for each compound in the range 1-4000 ng/mL. Aliquots of 50 μL each of mouse plasma from treated animals were used as plasma study samples.
All plasma samples were spiked with an appropriate internal standard and extracted with acetonitrile containing 2% formic acid. Supernatants were evaporated to dryness under nitrogen and the remaining solids reconstituted in water/acetonitrile 95/5 (v/v)+0.2% formic acid.
Extracts were then analyzed by reverse-phase chromatography (Acquity BEH C18, 100×2.1 mm, 1.7 μm column, Waters for Ex. 1 and Acquity HSS C18 SB, 100×2.1 mm, 1.8 μm column, Waters for Ex. 2, Ex. 3, Ex. 4, Ex. 5 and Ex. 6), using the following conditions: Ex. 1, mobile phases: (A) water/acetonitrile 95/5 (v/v)+0.1% formic acid, (B) acetonitrile/water 95/5 (v/v)+0.1% formic acid, gradient: 1% (B) 0-0.1 min, 15% (B) 0.1-2.5 min for Ex. 1 and 1% (B) 0-0.1 min, 40% (B) 0.1-2.5 min for Ex. 2, Ex. 3, Ex. 4, Ex. 5 and Ex. 6. The detection and quantification was performed by mass spectrometry, with electrospray interface in positive mode and selective fragmentation of analytes (4000 Q Trap mass spectrometer, AB Sciex).
PK parameters were calculated by WinNonLin™ software version 5.3 (Pharsight-A Certara™ Company, Mountain View, Calif. 94041 USA) using a one-compartmental model analysis. PK parameters were determined by least-square fitting of the model to the experimental data.

Row | Compound | remaining at 24 h [1] | GI50 at 48 h [2] | GI50 at 48 h [3] | level at 0.083 h [4] | level at 0.25 h [4] | level at 0.5 h [4] | level at 1 h [4] | level at 2 h [4] | level at 3 h [4] | AUC(0-inf) [4] | Cmax [4] | clearance [4] | half-life [4] | Vd [4] | level at 4 h [4] | remaining at 24 h, 10 μM [1] | GI50 at 48 h ([2]; MTT, 48 h, up to 50 μM, read-out: Cytotoxicity Cos-7 Cells GI50) | GI50 at 48 h ([3]; MTT, 48 h, up to 50 μM, read-out: Cytotoxicity Hela Cells GI50)
1 | CC(C)NCCCC[C@@H]1NC(=O)[C@H](CCC(N)=O)NC(=O)[C@H](Cc2ccc(O)cc2)NC(=O)[C@@H]2CSSC[C@H](NC(=O)[C@H](Cc3ccc(O)cc3)NC(=O)[C@H](Cc3c[nH]cn3)NC(=O)[C@H](Cc3ccc(O)cc3)NC(=O)[C@@H]3CCCN3C(=O)[C@H]3CCCN3C1=O)C(=O)N[C@@H](CO)C(=O)N[C@@H](C)C(=O)N1CCC[C@@H]1C(=O)N[C@@H](CCCNC(C)C)C(=O)N[C@@H](CCCNC(=N)N)C(=O)N[C@@H](Cc1ccc(O)cc1)C(=O)N2 [Ex. 1, cyclo(-Tyr^1-His^2-Tyr^3-Cys^4-Ser^5-Ala^6-^DPro^7-Orn(iPr)^8-Arg^9-Tyr^10-Cys^11-Tyr^12-Gln^13-Lys(iPr)^14-^DPro^15-Pro^16-) disulfide bond between Cys^4 and Cys^11] (cyclo(YHYCSA[dP][Orn(iPr)]RYCYQ[Lys(iPr)][dP]P); disulfide 4-11) | 77% | > 50 µM | > 50 µM | 1720 ng/mL | 989 ng/mL | 947 ng/mL | 373 ng/mL | 129 ng/mL | 15 ng/mL | 1150 ng·h/mL | 1830 ng/mL | 14.5 mL/min/kg | 24 min | 0.547 L/kg |  |  |  | 
2 | COc1ccc(C[C@@H]2NC(=O)[C@H](Cc3c[nH]cn3)NC(=O)[C@H](Cc3ccc(O)cc3)NC(=O)[C@@H]3CCCN3C(=O)[C@H]3CCCN3C(=O)[C@H](CCCCNC(C)C)NC(=O)[C@H](CCC(N)=O)NC(=O)[C@H](Cc3ccc(O)cc3)NC(=O)[C@@H]3CSSC[C@H](NC2=O)C(=O)N[C@@H](CO)C(=O)N[C@@H](C)C(=O)N2CCC[C@@H]2C(=O)N[C@@H](CCCNC(C)C)C(=O)N[C@@H](CCCNC(=N)N)C(=O)N[C@@H](Cc2ccc(O)cc2)C(=O)N3)cc1 [Ex. 2, cyclo(-Tyr^1-His^2-Tyr(Me)^3-Cys^4-Ser^5-Ala^6-^DPro^7-Orn(iPr)^8-Arg^9-Tyr^10-Cys^11-Tyr^12-Gln^13-Lys(iPr)^14-^DPro^15-Pro^16-), disulfide bond between Cys^4 and Cys^11] (cyclo(YHY(Me)CSA[dP][Orn(iPr)]RYCYQ[Lys(iPr)][dP]P); disulfide 4-11) | 100% | > 50 µM | > 41 µM | 1430 ng/mL | 1300 ng/mL | 836 ng/mL | 578 ng/mL | 234 ng/mL | 68 ng/mL | 1520 ng·h/mL | 1580 ng/mL | 11 mL/min/kg | 42 min | 0.635 L/kg | 22 ng/mL |  |  | 
3 | CC(C)NCCCC[C@@H]1NC(=O)[C@H](CCC(N)=O)NC(=O)[C@H](Cc2ccc(O)cc2)NC(=O)[C@@H]2CSSC[C@H](NC(=O)[C@H](C)NC(=O)[C@H](Cc3c[nH]cn3)NC(=O)[C@H](Cc3ccc(O)cc3)NC(=O)[C@@H]3CCCN3C(=O)[C@H]3CCCN3C1=O)C(=O)N[C@@H](CO)C(=O)N[C@@H](C)C(=O)N[C@H](Cc1ccc(O)cc1)C(=O)N[C@@H](CCN)C(=O)N[C@@H](CCCNC(=N)N)C(=O)N[C@@H](Cc1ccc(O)cc1)C(=O)N2 [Ex. 3, cyclo(-Tyr^1-His^2-Ala^3-Cys^4-Ser^5-Ala^6-^DTyr^7-Dab^8-Arg^9-Tyr^10-Cys^11-Tyr^12-Gln^13-Lys(iPr)^14-^DPro^15-Pro^16-), disulfide bond between Cys^4 and Cys^11] (cyclo(YHACSA[dY][Dab]RYCYQ[Lys(iPr)][dP]P); disulfide 4-11) |  |  |  | 1170 ng/mL | 999 ng/mL | 442 ng/mL | 402 ng/mL | 136 ng/mL | 26 ng/mL | 898 ng·h/mL | 1310 ng/mL | 18.6 mL/min/kg | 30 min | 0.762 L/kg | 12 ng/mL | 100% | > 50 µM | > 50 µM
